Source: US20130216649A1, “MOUTH-MOISTENING GUM COMPOSITIONS AND PRODUCTS CONTAINING THE SAME” (Kraft Foods Global Brands LLC, priority 2010, published 2013)

Experiment: Effect of the spilanthol amount in a chewing gum formulation (taste, mouth moistening)
Assay type: in vivo
Conditions: below 75 ppm in a chewing gum formulation

Which “effectiveness for mouth-moistening purposes” value does the source give for `C/C=C/C=C\CC/C=C/C(=O)NCC(C)C` [spilanthol, N-isobutyl-2E,6Z,8E-decatrienamide] here?
The value was “insufficient”.
